# Experimental data: ChEMBL document CHEMBL2401616, “A novel amalgamation of 1,2,3-triazoles, piperidines and thieno pyridine rings and evaluation of their antifungal activity” (2013)
# Calls of active or inactive are those of the source. No cut-off for these calls is given here.
# What was measured:
# Aspergillus niger [1] = assay: Antifungal activity against Aspergillus niger NCIM 1196 assessed as growth inhibition by agar dilution method; type: functional
# Fusarium oxysporum [2] = assay: Antifungal activity against Fusarium oxysporum NCIM 1332 assessed as growth inhibition by agar dilution method; type: functional
# Cryptococcus neoformans [3] = assay: Antifungal activity against Cryptococcus neoformans NCIM 576 assessed as growth inhibition by agar dilution method; type: functional
# Candida albicans = assay: Antifungal activity against Candida albicans NCIM 3471 assessed as growth inhibition by agar dilution method; type: functional
# Aspergillus flavus [4] = assay: Antifungal activity against Aspergillus flavus NCIM 539 assessed as growth inhibition by agar dilution method; type: functional
# Cryptococcus neoformans [5] = assay: Antifungal activity against Cryptococcus neoformans NCIM 576 assessed as growth inhibition up to 200 ug/mL by agar dilution method; type: functional, organism-based
# Aspergillus niger [6] = assay: Antifungal activity against Aspergillus niger NCIM 1196 assessed as growth inhibition up to 200 ug/mL by agar dilution method; type: functional, organism-based
# Fusarium oxysporum [7] = assay: Antifungal activity against Fusarium oxysporum NCIM 1332 assessed as growth inhibition up to 200 ug/mL by agar dilution method; type: functional, organism-based
# Aspergillus flavus [8] = assay: Antifungal activity against Aspergillus flavus NCIM 539 assessed as growth inhibition up to 200 ug/mL by agar dilution method; type: functional, organism-based
Compound,MIC (Aspergillus niger [1]),MIC (Fusarium oxysporum [2]),MIC (Cryptococcus neoformans [3]),MIC (Candida albicans),MIC (Aspergillus flavus [4]),growth inhibition (GI) (Cryptococcus neoformans [5]),growth inhibition (GI) (Aspergillus niger [6]),growth inhibition (GI) (Fusarium oxysporum [7]),growth inhibition (GI) (Aspergillus flavus [8])
c1ccc(CN2CCC(n3cc(CN4CCc5sccc5C4)nn3)CC2)cc1,100 µg/mL,75 µg/mL,90 µg/mL,50 µg/mL,60 µg/mL,–,–,–,–
c1cc2c(s1)CCN(Cc1cn(C3CCNCC3)nn1)C2,100 µg/mL,90 µg/mL,100 µg/mL,50 µg/mL,60 µg/mL,–,–,–,–
CN1CCC(n2cc(CN3CCc4sccc4C3)nn2)CC1,–,70 µg/mL,–,40 µg/mL,40 µg/mL,inactive,inactive,–,–
CC(C)C(=O)N1CCC(n2cc(CN3CCc4sccc4C3)nn2)CC1,47.5 µg/mL,100 µg/mL,150 µg/mL,100 µg/mL,35 µg/mL,–,–,–,–
CCN1CCC(n2cc(CN3CCc4sccc4C3)nn2)CC1,47.5 µg/mL,100 µg/mL,150 µg/mL,90 µg/mL,35 µg/mL,–,–,–,–
CS(=O)(=O)N1CCC(n2cc(CN3CCc4sccc4C3)nn2)CC1,40 µg/mL,30 µg/mL,25 µg/mL,50 µg/mL,40 µg/mL,–,–,–,–
Clc1ccc(COC(Cn2ccnc2)c2ccc(Cl)cc2Cl)c(Cl)c1 (stereo not given) [MICONAZOLE],12.5 µg/mL,25 µg/mL,25 µg/mL,25 µg/mL,12.5 µg/mL,–,–,–,–
Cc1ccc(S(=O)(=O)N2CCC(n3cc(CN4CCc5sccc5C4)nn3)CC2)cc1,37.5 µg/mL,70 µg/mL,40 µg/mL,60 µg/mL,45 µg/mL,–,–,–,–

# The next lines start with results.
MIC (Aspergillus niger [1]),MIC (Fusarium oxysporum [2]),MIC (Cryptococcus neoformans [3]),MIC (Candida albicans),MIC (Aspergillus flavus [4]),Compound,growth inhibition (GI) (Cryptococcus neoformans [5]),growth inhibition (GI) (Aspergillus niger [6]),growth inhibition (GI) (Fusarium oxysporum [7]),growth inhibition (GI) (Aspergillus flavus [8])
–,–,100 µg/mL,90 µg/mL,65 µg/mL,O=C(c1ccccc1)N1CCC(n2cc(CN3CCc4sccc4C3)nn2)CC1,–,inactive,inactive,–
–,60 µg/mL,–,50 µg/mL,30 µg/mL,CCC(=O)N1CCC(n2cc(CN3CCc4sccc4C3)nn2)CC1,inactive,inactive,–,–
42.5 µg/mL,40 µg/mL,45 µg/mL,45 µg/mL,40 µg/mL,O=C(c1ccc(Cl)cc1)N1CCC(n2cc(CN3CCc4sccc4C3)nn2)CC1,–,–,–,–
100 µg/mL,45 µg/mL,–,40 µg/mL,–,CC(=O)N1CCC(n2cc(CN3CCc4sccc4C3)nn2)CC1,inactive,–,–,inactive
